Like-named read-outs stand apart in the source and are kept apart here. Starred links: 1 amine or outer side, 2 acyl side, 3 side chain; linkers in the order of their positions; H or OH if unused. Non-standard residues stand in square brackets, D forms with d. Residues, ends and D or L forms follow the SMILES beside them. sY = N[C@@H](Cc1ccc(OS(=O)(=O)O)cc1)C(=O)O; Glutaryl = O=C(CCCC(=O)[*:2])[*:1]; pGlu = O=C1CC[C@@H](C(=O)O)N1; Suc = O=C(CCC(=O)[*:2])[*:1]
Experiments:
[1] = test system: gallbladder; assay type: in vivo, guinea pig; conditions: for Gallbladder contracting activity (in words): compared with CCK-8
Procedure: This test was in accordance with the method of G. Bertaccini et al. [Br. J. Pharmacol., 34, 291-310 (1968)].
Male Hartley guinea pigs (weighing 400-600 g) was anesthetized with urethane and fixed at the supine position. After laparotomy, the top of the gallbladder was clamped with a Serre-fine which was connected to a FD pickup (model: SB-IT, NIHON KOHDEN KOGYO Co., Ltd.), and the contraction was recorded on a recorder (model: PJB-3012, made by the above company) through a preamplifier (model: RUP-25, made by the above company). A standard solution and the invented peptide solutions were injected into the jugular vein, and the relative potency was determined from the peak height of the gallbladder contraction.

[2] = test system: pancreatic external secretion; assay: Acceleration of pancreatic external secretion (method of Dockray), i.v. in rats, compared with CCK-8; assay type: in vivo, rat; conditions: male Wistar rats, 30 minutes after administration
Procedure: This test was conducted in accordance with the method of Dockray [J. Physiol., 225, 679-692 (1972)]. Male Wistar rats (weighing about 280 g) were deprived for 24 hours and under anesthesia the gastric pylorus and the duodenal side end of the common hepatic duct were ligated. A canula for collection of pancreatic juice was inserted into the duct in the retrograde fashion. The bile was led into the duodenum. Varying concentrations of the control solution (CCK-8 solution) and solutions of the invented peptides in a volume of 50 μl were administered intravenously every one hour, thus determining the increment in the secretion rate of the pancreatic juice and protein during 30 minutes after administration, wherein the amount of the whole protein secreted was determined from the ultraviolet absorbance at 280 nm of the pancreatic juice secreted.

[3] = test system: pancreatic external secretion; assay: Pancreatic external secretion accelerating activity (protein secretion), compared with tetragastrin; assay type: in vivo, rat; conditions: rats, i.v., increment in protein secretion rate during 30 minutes (UV 280 nm); tetragastrin = 1.0
Procedure: This test was conducted in accordance with the method of Dockray [J. Physiol., 225, 679-692 (1972)]. Male Wistar rats (weighing about 280 g) were deprived for 24 hours and under anesthesia the gastric pylorus and the duodenal side end of the common hepatic duct were ligated. A canula for collection of pancreatic juice was inserted into the duct in the retrograde fashion. The bile was led into the duodenum. […] The test was conducted in the same manner as stated already. The increment in the secretion rate of the protein in the pancreatic during 30 minutes after administration of the test solution was determined from the ultraviolet absorbance at 280 nm of the pancreatic juice. The found values were compared with that of tetragastrin.

[4] = test system: gastric acid secretion; assay: Gastric acid secretion accelerating activity in Shay rats; assay type: in vivo, rat; conditions: pylorus-ligated male Wistar rats, i.v., gastric juice 2 hours after administration; tetragastrin = 1.0
Procedure: This test was conducted with Shay rats [H, Shay et al., Gastroenterology, 5, 43 (1945)] prepared. Employing male Wistar rats (weighing 270-310 g) deprived for 24 hours, the gastric pylorus was ligated under ether-anesthesia. Immediately thereafter, the invented peptides and tetragastrin as a control were administered intravenously. Gastric juice was withdrawn 2 hours after administration, and its amount and the total amount of acid secreted were measured to determine the relative potency based on tetragastrin.

[5] = male Hartley guinea pigs, injection into jugular vein, from peak height of gallbladder contraction, CCK-8 = 100

Row | Compound | Gallbladder contracting activity, relative potency ([1]; guinea pig, in vivo) | Increased amount of the pancreatic juice secreted (in words) [2] | Gallbladder contracting activity (in words) ([1]; guinea pig) | Pancreatic external secretion accelerating activity, relative potency [3] | Gastric acid secretion accelerating activity, relative potency [4] | Gallbladder contracting activity, relative potency [1, 5]
1 | CSCC[C@H](NC(=O)[C@H](Cc1ccc(OS(=O)(=O)O)cc1)NC(=O)[C@@H](N)CC(=O)O)C(=O)NCC(=O)N[C@@H](Cc1c[nH]c2ccccc12)C(=O)N[C@@H](CCSC)C(=O)N[C@@H](CC(=O)O)C(=O)N[C@@H](Cc1ccccc1)C(N)=O [CCK-8, Asp-Tyr(SO3 H)-Met-Gly-Trp-Met-Asp-Phe-NH2, reference compound] | 100 | – | – | – | – | –
2 | CSCC[C@H](NC(=O)[C@H](Cc1c[nH]c2ccccc12)NC(=O)CNC(=O)[C@H](CCSC)NC(=O)[C@H](Cc1ccc(OS(=O)(=O)O)cc1)NC(=O)CCC(=O)O)C(N)=O [Compound I, Suc-Tyr(SO3 H)-Met-Gly-Trp-Met-NH2] (Suc-[sY]MGWM-NH2) | 0 | no active effect | no activity | – | – | –
3 | CSCC[C@H](NC(=O)[C@H](Cc1ccc(OS(=O)(=O)O)cc1)NC(=O)CCC(=O)O)C(=O)NCC(=O)N[C@@H](Cc1c[nH]c2ccccc12)C(=O)N[C@@H](CCSC)C(=O)N[C@@H](CC(=O)O)C(N)=O [Compound II, Suc-Tyr(SO3 H)-Met-Gly-Trp-Met-Asp-NH2] (Suc-[sY]MGWMD-NH2) | 0 | no active effect | no activity | – | – | –
4 | CSCC[C@H](NC(=O)[C@H](Cc1c[nH]c2ccccc12)NC(=O)[C@@H](Cc1c[nH]c2ccccc12)NC(=O)[C@H](CCSC)NC(=O)[C@H](Cc1ccc(OS(=O)(=O)O)cc1)NC(=O)CCC(=O)O)C(=O)N[C@@H](CC(=O)O)C(=O)N[C@@H](Cc1ccccc1)C(N)=O [Compound IV, Suc-Tyr(SO3 H)-Met-D-Trp-Trp-Met-Asp-Phe-NH2] (Suc-[sY]M[dW]WMDF-NH2) | 5.0 | comparable to that of CCK-8 | mild | – | – | –
5 | CSCC[C@H](NC(=O)[C@H](Cc1ccc(OS(=O)(=O)O)cc1)NC(=O)[C@H](CC(=O)O)NC(=O)CCN)C(=O)NCC(=O)N[C@@H](Cc1c[nH]c2ccccc12)C(=O)N[C@@H](CCSC)C(=O)N[C@@H](CC(=O)O)C(=O)N[C@@H](Cc1ccccc1)C(N)=O [Compound IX, β-Ala-Asp-Tyr(SO3 H)-Met-Gly-Trp-Met-Asp-Phe-NH2] | 113 | about half of that of CCK-8 | comparable activities with CCK-8 | – | – | –
6 | CSCC[C@H](NC(=O)[C@H](Cc1c[nH]c2ccccc12)NC(=O)[C@@H](Cc1c[nH]c2ccccc12)NC(=O)[C@H](CCSC)NC(=O)[C@H](Cc1ccc(OS(=O)(=O)O)cc1)NC(=O)CCCC(=O)O)C(=O)N[C@@H](CC(=O)O)C(=O)N[C@@H](Cc1ccccc1)C(N)=O [Compound V, Glt-Tyr(SO3 H)-Met-D-Trp-Trp-Met-Asp-Phe-NH2] (Glutaryl-[sY]M[dW]WMDF-NH2) | < 1.0 | comparable to that of CCK-8 | little activity | – | – | –
7 | CSCC[C@H](NC(=O)[C@H](Cc1ccc(OS(=O)(=O)O)cc1)NC(=O)[C@H](CC(=O)O)NC(=O)CN)C(=O)NCC(=O)N[C@@H](Cc1c[nH]c2ccccc12)C(=O)N[C@@H](CCSC)C(=O)N[C@@H](CC(=O)O)C(=O)N[C@@H](Cc1ccccc1)C(N)=O [Compound VIII, Gly-Asp-Tyr(SO3 H)-Met-Gly-Trp-Met-Asp-Phe-NH2] | 97 | comparable to that of CCK-8 | comparable activities with CCK-8 | – | – | –
8 | CSCC[C@H](NC(=O)[C@H](Cc1c[nH]c2ccccc12)NC(=O)CNC(=O)[C@H](Cc1ccc(OS(=O)(=O)O)cc1)NC(=O)[C@H](C)NC(=O)CCCC(=O)O)C(=O)N[C@@H](CC(=O)O)C(=O)N[C@@H](Cc1ccccc1)C(N)=O [Compound X, Glt-Ala-Tyr(SO3 H)-Gly-Trp-Met-Asp-Phe-NH2] (Glutaryl-A[sY]GWMDF-NH2) | – | – | – | 258.8 | 6.1 | –
9 | CSCC[C@H](NC(=O)[C@H](Cc1c[nH]c2ccccc12)NC(=O)CNC(=O)[C@H](Cc1ccc(OS(=O)(=O)O)cc1)NC(=O)[C@H](C)NC(=O)[C@@H]1CCC(=O)N1)C(=O)N[C@@H](CC(=O)O)C(=O)N[C@@H](Cc1ccccc1)C(N)=O [Compound XI, pGlu-Ala-Tyr(SO3 H)-Gly-Trp-Met-Asp-Phe-NH2] ([pGlu]A[sY]GWMDF-NH2) | – | – | – | 50.0 | 2.0 | –
10 | CSCC[C@H](NC(=O)[C@@H](N)Cc1c[nH]c2ccccc12)C(=O)N[C@@H](CC(=O)O)C(=O)N[C@@H](Cc1ccccc1)C(N)=O [Tetragastrin, reference compound] | – | – | – | 1.0 | 1.0 | –
11 | Suc-Phe(NHSO3 H)-Met-Gly-Trp-Met-Asp-Phe-NH2 [Compound VII] | – | no active effect | little activity | – | – | < 1.0
12 | Suc-Tyr(SO3 H)-Met-D-Ala-Trp-Met-Asp-Phe-NH2 [Compound III] | – | – | mild | – | – | 8.7

Reference: patent US4530836A, “Peptide” (Amano Pharmaceutical Co., Ltd., priority 1983, dated 1985)
